In patent US20120202756A1, “USE OF PRODRUGS TO AVOID GI MEDIATED ADVERSE EVENTS” (priority 2009, published 2012):
Converted amounts (≈) assume the structure as drawn. “And” between values parts separate entries of the source, which are not always exact repeats. Equal entries are not always repeated. Where two headings read alike, the source gives them in different places.

Legend:
[1] = Stability in simulated intestinal juice (FaSSIF); type: in vitro ADME; conditions: FaSSIF pH 6.5, pancreatin 1%, prodrug 20 μg/mL
Method: (§1) To avoid direct interaction between the active drug and the gut microfloral population, the prodrug should not undergo premature chemical or enzymic cleavage back to the parent dug while within the gut lumen. To confirm this the prodrugs were incubated with USP SGF (simulated gastric fluid), FeSSIF (fed state simulated intestinal fluid) and FaSSIF (fasted state simulated intestinal fluid) and remaining prodrug and any generated active drug assayed by use of a qualified LC-MS/MS analytical method.
(§2) Method—Prodrug (20 μg/mL) in the FaSSIF cocktail comprising sodium taurocholate 3 mM, lecithin 0.75 mM, NaOH 8.7 mM, NaH2PO4. H2O 28.7 mM, NaCl 106 mM, pancreatin 1% (overall pH 6.5) was incubated for 2 h at 37° C. After acidifying the incubation to stop any reaction the amount of prodrug remaining and drug generated were determined using a qualified LC-MS/MS method.
(§3) To minimize the direct inhibitory action of this drug on gastric emptying/gut motility—and resultant nausea—the prodrug should not undergo premature chemical or enzymic cleavage back to the parent drug while within the gut lumen. To confirm this, the prodrugs were incubated with USP SGF (simulated gastric fluid), FeSSIF (fed state simulated intestinal fluid) and FaSSIF (fasted state simulated intestinal fluid) and remaining prodrug, and any generated active drug, assayed by use of a qualified LC-MS/MS analytical method.
as §2, with “Prodrug” for “Method—Prodrug”
as §1, with “gut,” for “gut microfloral population,”

[2] = Stability in simulated intestinal juice (FeSSIF); type: in vitro ADME; conditions: FeSSIF pH 5.0, pancreatin 1%
Method: as §1
Pancreatin was again added at 1%.
as §3
as §1, with “gut,” for “gut microfloral population,”

[3] = Stability in USP simulated gastric juice; type: in vitro ADME; conditions: USP SGF pH 1.1, pepsin […], prodrug 20 μg/mL
Text: To minimize the direct inhibitory action of this drug on gastric emptying/gut motility—and resultant nausea—the prodrug should not undergo premature chemical or enzymic cleavage back to the parent drug while within the gut lumen.

[4] = male rats; for Frel: relative bioavailability of donepezil vs dosing donepezil itself, mean
Method: Serial tail vein blood samples were subsequently collected via an indwelling cannuala into EDTA tubes containing a stabilising cocktail (including 6 mg/mL NaF) to prevent post collection enzymic hydrolysis of the prodrug.

[5] = % of treated patients, cited from earlier work
[6] = system: Campylobacter jejuni; experiment: MIC agar dilution
[7] = system: Eggerthella lenta; experiment: MIC agar dilution; type: cell-based; conditions: ATCC43055, ATCC 43055
[8] = system: Bifidobacterium longum; experiment: MIC agar dilution; type: cell-based; conditions: NCTC11818
[9] = system: Propionibacterium acnes; experiment: MIC agar dilution
[10] = system: Campylobacter coli; experiment: MIC agar dilution
[11] = system: Peptostreptococcus anaerobius; experiment: MIC agar dilution; type: cell-based; conditions: NCTC11460
[12] = system: Clostridium perfringens; experiment: microbe, parasite or virus in culture; type: cell-based
[13] = system: Bacteroides thetaiotamicron; experiment: MIC agar dilution; type: cell-based
[14] = system: Clostridium sporogenes; experiment: MIC agar dilution; type: cell-based; conditions: ATCC3584, ATCC 3584
[15] = system: Helicobacter pylori; experiment: MIC agar dilution
[16] = system: Peptostreptococcus magnus; experiment: MIC agar dilution; type: cell-based; conditions: Finegoldia magna; clinical isolate
[17] = system: Bacteroides fragilis; experiment: MIC agar dilution
[18] = system: Porphyromonas assacharolyticus; experiment: MIC agar dilution; type: cell-based; conditions: clinical isolate
[19] = system: Peptostreptococcus micros; experiment: MIC agar dilution; type: cell-based; conditions: Parvimonas micra; clinical isolate
[20] = system: Fusobacterium necrophorum; experiment: MIC agar dilution; type: cell-based; conditions: clinical isolate
[21] = Bioavailability of metronidazole from its prodrugs in the rat; conditions: male rats; for T>50% Cmax: period plasma metronidazole at or above 50% of Cmax, oral 1 mg equivalents/kg
Method: In order to confirm successful absorption and subsequent hydrolysis of these metronidazole prodrugs, a comparative bioavailability study was undertaken in the rat Methods—Three groups of five male Sprague Dawley rats were orally dosed with either metronidazole itself or its succinyl valine or glutaryl para-amino benzoic acid ester prodrugs. Serial tail vein blood samples were subsequently collected via an indwelling cannuala into EDTA tubes containing a stabilising cocktail (including 6 mg/mL NaF) to prevent post collection enzymic hydrolysis of the prodrug. Separated plasma samples were subjected to bioanalysis for both the prodrugs and metronidazole itself using a qualified LC/MS-MS bioanalytical method.

[22] = system: Clostridium novyi; experiment: MIC agar dilution; type: cell-based; conditions: ATCC19402
[23] = system: Prevotella bivia; experiment: MIC agar dilution; type: cell-based; conditions: ATCC29303, ATCC 29303
[24] = system: Clostridium sordellii; experiment: MIC agar dilution; type: cell-based; conditions: Paraclostridium sordellii, NCTC13356; NCTC 13356
[25] = system: Prevotella denticola; experiment: MIC agar dilution; type: cell-based; conditions: clinical isolate
[26] = system: Bifidobacterium dentium; experiment: MIC agar dilution; type: cell-based; conditions: NCTC11816
[27] = system: Bifidobacterium adolescentis; experiment: MIC agar dilution; type: cell-based; conditions: NCTC11814
[28] = system: Clostridium difficile; experiment: MIC agar dilution; type: cell-based; conditions: Clostridioides difficile
[29] = system: Clostridium bifermentans; experiment: MIC agar dilution; type: cell-based; conditions: Paraclostridium bifermentans, ATCC638
[30] = system: Veillonella parvula; experiment: MIC agar dilution; type: cell-based; conditions: NCTC11810
[31] = system: Veillonella spp.; experiment: MIC agar dilution; type: cell-based; conditions: clinical isolate
[32] = system: Porphyromonas endodontalis; experiment: MIC agar dilution; type: cell-based; conditions: clinical isolate
[33] = system: Veillonella atypical; experiment: MIC agar dilution; type: cell-based; conditions: NCTC11830
[34] = target: T1, hNav1.1 channel (Homo sapiens, UniProt P35498); experiment: Blockade of cloned Nav1.1 channels expressed in mammalian cells; type: cell-based
T1 construct: expressed in transfected cells
Method: Blockade of hNav1.1 channel was measured using a stimulus voltage pattern shown in the diagram below: Voltage potentials are indicated in Table 13. The pulse pattern was repeated twice: before and 5 minutes after TA addition and peak current amplitudes at three test pulses were measured (ITP1, TP11 and ITP12).
Data acquisition and analyses was performed using the lonWorks Quattro™ system operation software (version 2.0.2; Molecular Devices Corporation, Union City, Calif.). Data was corrected for leak current.
The tonic block was calculated as:
% Block (Tonic)=(1−ITP1,TA/ITP1,Control)×100%,
10 Hz Block—the frequency-dependent block at stimulation frequency 10 Hz was calculated as:
% Block (10 Hz)=(1−ITP11, TA/ITP11, Control))×100%,
We define the inactivation state block as decrease in test pulse (TP12) current amplitude due to the conditioning depolarizing pulse (TP11). The inactivation state block was calculated as:
% Block (inactivation state)=(1−(ITP12, TA/[…])×100%,
Concentration-response data for the blocks were fit to an equation of the following form: […]
where [Test] is the concentration of test article, IC50 is the concentration of the test article producing half-maximal inhibition, N is the Hill coefficient, and % Block is the percentage of ion channel current inhibited at each concentration of the test article. Nonlinear least squares fits were solved with the Solver add-in for Excel 2000 (Microsoft, Redmond, Wash.).

[35] = frequency-dependent block at 10 Hz (TP11), read-out: IC50 10 Hz block
[36] = inactivation state block (TP12), read-out: IC50 Inactivated state
[37] = tonic block (TP1), read-out: IC50 Tonic block

CCOC(=O)[C@@H](NC(=O)CCCC(=O)OC1=C(CC2CCN(Cc3ccccc3)CC2)Cc2cc(OC)c(OC)cc21)C(C)C [Donepezil glutaryl valine ethyl ester, donepezil[glutaryl-(S)-valineethyl ester]enol ester]
Simulated intestinal juice (2 h, 37° C.) (FaSSIF) % active drug generated [1]: 11%
Simulated intestinal juice (2 h, 37° C.) (FeSSIF) % active drug generated [2]: 3%
Simulated gastric juice (1 h, 37° C.) % active drug generated [3]: 2%
plasma persistence of donepezil ([4]; oral): not in evidence
Frel [4]: 31%

CCCCN1C[C@H](O)[C@@H](O)[C@H](O)[C@H]1CO [miglustat]
incidence of diarrhoea [5]: up to 89%

Cc1cn([C@H]2C=C[C@@H](CO)O2)c(=O)[nH]c1=O [Stavudine]
incidence of diarrhoea [5]: 44%
incidence of nausea and vomiting [5]: 39-44%

CC(C)CN(C[C@@H](O)[C@H](Cc1ccccc1)NC(=O)O[C@H]1CCOC1)S(=O)(=O)c1ccc(N)cc1 [amprenavir]
incidence of diarrhoea [5]: 39%
incidence of nausea [5]: 74%
incidence of vomiting [5]: 34%

Cc1ncc([N+](=O)[O-])n1CCO [Metronidazole, metronidazole, reference compound]
MIC [6]: 8 µg/mL (≈ 46.7 µM)
MIC ([6]; ATCC33560): 1 µg/mL (≈ 5.84 µM)
MIC [7]: 0.5 µg/mL (≈ 2.92 µM)
MIC [8]: 8 µg/mL (≈ 46.7 µM)
MIC ([9]; Cutibacterium acnes): > 64 µg/mL
MIC ([9]; clinical isolate MIC clindamycin 0.5 mg/L): >64 µg/mL
MIC [10]: 1 µg/mL (≈ 5.84 µM)
MIC ([10]; ATCC33559): 0.5 µg/mL (≈ 2.92 µM)
MIC [11]: 0.12 µg/mL (≈ 0.701 µM)
MIC [12]: 2 µg/mL (≈ 11.7 µM)
MIC ([12]; ATCC13124): 1 µg/mL (≈ 5.84 µM)
MIC ([13]; ATCC29741): 1 µg/mL (≈ 5.84 µM)
MIC ([13]; NCTC10582): 1 µg/mL (≈ 5.84 µM)
MIC [14]: 0.06 µg/mL (≈ 0.351 µM)
MIC ([15]; clinical isolate (first listed, r83)): 2 µg/mL (≈ 11.7 µM)
MIC ([15]; clinical isolate (second listed, r85)): 2 µg/mL (≈ 11.7 µM)
MIC [16]: 0.25 µg/mL (≈ 1.46 µM)
MIC [17]: 0.5 µg/mL (≈ 2.92 µM)
MIC ([17]; ATCC25285): 0.5 µg/mL (≈ 2.92 µM)
MIC [18]: 0.5 µg/mL (≈ 2.92 µM)
MIC [19]: 0.25 µg/mL (≈ 1.46 µM)
MIC [20]: 0.12 µg/mL (≈ 0.701 µM)
time of peak plasma levels after dosing ([21]; oral): ≤ 15 min
T>50% Cmax ([21]; individual animals): 1.5 h and 1.75 h and 2.75 h and 3.0 h and 2.5 h
T>50% Cmax ([21]; mean): 2.3 ± 0.65 h and 2.3 h
MIC [22]: 0.5 µg/mL (≈ 2.92 µM)
MIC [23]: 1 µg/mL (≈ 5.84 µM)
MIC [24]: 0.5 µg/mL (≈ 2.92 µM)
MIC [25]: 0.5 µg/mL (≈ 2.92 µM)
MIC [26]: 16 µg/mL (≈ 93.5 µM)
MIC [27]: 32 µg/mL (≈ 187 µM)
MIC ([28]; ATCC700057, ATCC 700057): 0.12 µg/mL (≈ 0.701 µM)
MIC ([28]; NCTC13366, NCTC 13366 - NAP1/027): 0.12 µg/mL (≈ 0.701 µM)
MIC ([28]; antibiotic-susceptible clinical isolate): 0.06 µg/mL (≈ 0.351 µM)
MIC [29]: 0.25 µg/mL (≈ 1.46 µM)
MIC [30]: 4 µg/mL (≈ 23.4 µM)
MIC [31]: 2 µg/mL (≈ 11.7 µM)
MIC [32]: 1 µg/mL (≈ 5.84 µM)
MIC [33]: 8 µg/mL (≈ 46.7 µM)

Cc1ccc(Nc2nccc(N(C)c3ccc4c(C)n(C)nc4c3)n2)cc1S(N)(=O)=O [pazopanib]
incidence of diarrhoea [5]: ~50%
incidence of diarrhoea ([5]; listed as pazapanib): > 50%

CCCNCC(COc1ccccc1C(=O)CCc1ccccc1)OC(=O)CCCC(=O)Nc1ccc(C(=O)O)cc1 (centres unmarked) [Propafenone glutaryl PABA ester, Propafenone (glutaryl-PABA) ester]
IC50 [34, 35]: 96.3 µM
IC50 [34, 36]: 32.2 µM
IC50 [34, 37]: 464 µM

COc1ccc(C(CN(C)C)C2(O)CCCCC2)cc1 (centres unmarked) [venlefaxine, venlafaxine]
incidence of nausea [5]: Up to 30%

CCCNCC(COc1ccccc1C(=O)CCc1ccccc1)OC(=O)CCC(=O)N[C@H](C(=O)O)C(C)C (stereo partly drawn) [Propafenone succinyl valine ester, Propafenone[succinyl-(S)-valine]ester]
IC50 [34, 35]: 69.5 µM
IC50 [34, 36]: 37.2 µM
IC50 [34, 37]: 151 µM

CCOC(=O)c1ccc(NC(=O)CCCC(=O)OC2=C(CC3CCN(Cc4ccccc4)CC3)Cc3cc(OC)c(OC)cc32)cc1 [Donepezil glutaryl PABA ethyl ester, donepezil[glutaryl-PABA ethyl ester]enol ester]
Simulated intestinal juice (2 h, 37° C.) (FaSSIF) % active drug generated [1]: 2%
Simulated intestinal juice (2 h, 37° C.) (FeSSIF) % active drug generated [2]: 1%
Simulated gastric juice (1 h, 37° C.) % active drug generated [3]: 2%
Prodrug plasma levels ([4]; oral): undetectable
Frel [4]: 30%

C#Cc1cccc(Nc2ncnc3cc(OCCOC)c(OCCOC)cc23)c1 [erlotinib]
incidence of diarrhoea [5]: 50-60%
